By IC50 is commonly meant the concentration that inhibits the measured activity by half.

Molecules are shown by their SMILES. Read-outs that look alike come from different tables or passages of the source.

The values below come from US10874686B2, “Anthranilyl-adenosinemonosulfamate analogs and uses thereof” (Memorial Sloan-Kettering Cancer Center, priority 2015, dated 2020).

The target in one series is P. aeruginosa PqsA (Pseudomonas aeruginosa, UniProt Q9I4X3). Kind of series: PqsA inhibition, spectrophotometric assay with recombinant PqsA (anthranilyl-CoA formation at 365 nm). Format: biochemical. The note with it: uncompetitive with respect to anthranilate and CoA. On the procedure: PqsA inhibitors were evaluated using a quantitative spectrophotometric assay with recombinant PqsA, detecting formation of anthranilyl-CoA at 365 nm. See, e.g., Coleman et al. (2008) J. Bacteriol. 190, 1247. […] See, e.g., Morrison et al. Biochim. Biophys. Acta, Enzymol. 185, 269-286; Williams et al. (1979) Methods Enzymol. 63, 437. […] See, e.g., Qiao et al. (2007) J. Am. Chem. Soc. 129, 6350.
Sequence of P. aeruginosa PqsA (Q9I4X3 whole entry): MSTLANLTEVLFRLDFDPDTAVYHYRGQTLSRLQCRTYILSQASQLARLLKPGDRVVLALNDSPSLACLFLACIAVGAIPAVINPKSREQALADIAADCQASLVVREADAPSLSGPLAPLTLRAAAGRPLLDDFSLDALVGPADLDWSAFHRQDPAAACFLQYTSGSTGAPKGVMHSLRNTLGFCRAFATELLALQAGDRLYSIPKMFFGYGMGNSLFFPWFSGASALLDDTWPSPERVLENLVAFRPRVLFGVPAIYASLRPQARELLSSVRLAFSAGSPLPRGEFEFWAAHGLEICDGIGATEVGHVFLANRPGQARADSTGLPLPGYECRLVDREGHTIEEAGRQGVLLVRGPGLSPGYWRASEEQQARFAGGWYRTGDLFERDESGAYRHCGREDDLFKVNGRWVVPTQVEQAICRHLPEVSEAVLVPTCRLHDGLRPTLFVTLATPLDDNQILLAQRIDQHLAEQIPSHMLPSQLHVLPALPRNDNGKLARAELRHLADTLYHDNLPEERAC
Reactions were performed at 37° C. in a 0.5 mL volume in a Varian Cary 100 UV-visible spectrophotometer with Cary WinUV software. Reaction mixtures contained 100 mM HEPES, pH 8.0, 0.2 mM dithiothreitol, 2 mM MgCl2, ˜3.3 μg PqsA protein (˜60 nM final), and depending on which substrate varied, 1 mM ATP (disodium salt), 0.5 mM coenzyme A (tri-lithium salt), 0.5 mM sodium anthranilate, and inhibitor (usually as a DMSO stock solution). Reactions were blanked and preincubated with all components except anthranilate at 37° C. for 1 min, then initiated by addition of anthranilate. Formation of anthraniloyl-CoA was monitored ance at 365 nm (ε=5.5 mM−1 cm−1) for 1 min. Data were analyzed using GraphPad Prism 6 software.

In series [1] the test system is pyocyanin production by P. aeruginosa strain PA14. Kind of series: Pyocyanin production by P. aeruginosa strain PA14. Format: cell-based, Pseudomonas aeruginosa. To be noted: 1 mM, 24 h. On the procedure:
Production of pyocyanin by P. aeruginosa strain PA14 was performed in triplicate in roundbottom glass tubes containing 5-mL cultures in LB medium. Tubes tilted at ˜60° angle were incubated at 37° C. in an orbital shaker at 200 rpm. Cultures were inoculated with 15-h preculture in LB in order to obtain a starting OD600 nm=0.05, with or without inhibitors added. At 24 h, 1 mL of each culture was thoroughly vortexed and centrifuged (12,000 g, 5 min). Next, 0.8 mL of the supernatant was removed and the OD690 nm was measured. The ratio of the absorbance compound-treated or MvfR^− cultures and untreated controls was calculated to provide the data in FIG. 7B.
The ability of these PqsA inhibitors to block production of the virulence factor pyocyanin was investigated. […] See, e.g., Starkey et al. (2014) PLoS Pathog. 10, e1004321; Storz et al. (2012) J. Am. Chem. Soc. 134, 16143; Thomann et al. (2016) ACS Chem. Biol. 11, 1279. Haloanthranilate substrate analogues have been reported to inhibit both quinolone and pyocyanin production but may impact multiple targets in this complex signaling network. This is indicative of the complex relationship between HHQ and PQS quinolone biosynthesis, induction of the MvfR regulon, and production of pyocyanin.

For another series, the system named is MRC5 cells. Put plainly: Cytotoxicity cell viability assay (CellTiter Glo), MRC5. It is filed as cell-based. To be noted: for IC50: Homo sapiens, MRC5, 48 hrs, luminescence; for toxicity in words, CellTiter Glo, MRC5: MRC5, luminescence readout, up to 1000 μM. The text has this:
Promega Cell Titer-Glo utilizes the ATP dependent conversion of Luciferin to Oxyluciferin by a recombinant Luciferase in order to quantify the number of metabolically active cells in a sample. Quantification is possible because the number of RLU's detected is linearly proportional to the amount of ATP produced by metabolically active cells in culture at the time of lysis. Therefore, the relative cytotoxicity of each compound can be tested by quantifying the amount of ATP present in each microtiter well as compared to control groups. HepG2 and MRC5 were plated at a density of 1500 cells/25 al in well in the assay plate and allowed to settle overnight. 0.1 μL of compounds was then transferred from the source plate, into the cell assay plates. The cells were left to incubate with the compounds for 48 hrs, after which, 25 μL of Promega Cell Titer-Glo was added to each well, and allowed to incubate at room temperature with shaking for 20 minutes. RLU's for each well were then recorded on a BioTek Synergy NEO. DMSO was used as negative control
(In general: Cellular ATP, detected with luciferase, serves as a proxy for viable cell number.)

The subject of a further series is HepG2 cells. Kind of series: Cell health and viability image-based study (fluorescence microscopy), HepG2. To be noted: for IC50: Homo sapiens, HepG2, imaging; for toxicity in words, imaging, HepG2: up to 1000 μM. On the procedure: The multiparametric assay developed surveys a number of elements of cell health simultaneously. Using a combination of 2 dyes, we are able to simultaneously measure nuclear morphology, membrane integrity and cell proliferation. All measurements are made on live cells after an incubation time of 24H. Hoechst 33342 is used to measure total number of cells, nuclear morphology and cell proliferation. The nuclear impermeable dye Syto17 is used to assess the nuclear membrane integrity by measuring the nuclear translocation of the dye when the membrane gets porous after incubation with a toxic compound. Cells were plated at a density of 1500 cells/25 al in well in a 384 wells plate the day before incubation with the drugs. The following day, 0.1 al of the source plate are added to the assay plate. Then, 25 al of a fluorophores mixture containing Hoechst 33342, Syto17 diluted in EMEM was added to each well. Plates are read after 48 h incubation in the ImageXpress instrument (Molecular Devices) using the appropriate filters. Images are analyzed using an application of MetaXpress software (Molecular Devices) and data are presented using Prism software. Low Signal Control (C23): 5 μM Staurosporine; High Signal Control (C24): DMSO.

[2] abbreviates: Hoechst 33342, read-out: Cell Count IC50, HepG2.
[3] abbreviates: Syto17, read-out: Nuclear membrane integrity IC50, HepG2.

On to `Nc1ccccc1C(=O)NS(=O)(=O)OC[C@H]1O[C@@H](n2cnc3c(N)ncnc32)[C@H](O)[C@@H]1O` [anthranilyl-AMS, Anthranilyl-AMS], for which the “mode of PqsA inhibition” value on P. aeruginosa PqsA is reported as “competitive inhibitors with respect to ATP”. Further, the “inhibition of pyocyanin production” value in series [1] is given as “neither inhibited pyocyanin production”. Besides, the IC50 is 10.6 µM in the series on MRC5 cells, 5.9 µM in the series with HepG2 cells (setting [2]) and 12.1 µM in the series on HepG2 cells (setting [3]). Besides, the “toxicity in words, CellTiter Glo, MRC5” value with MRC5 cells is “significant toxicity in the tested range”. Also, the “toxicity in words, imaging, HepG2” value in the series with HepG2 cells was “significant toxicity in the tested range”.
With `Nc1ccccc1C(=O)NS(=O)(=O)NC[C@H]1O[C@@H](n2cnc3c(N)ncnc32)[C@H](O)[C@@H]1O` [anthranilyl-AMSN, Anthranilyl-AMSN], on P. aeruginosa PqsA, the “mode of PqsA inhibition” value is on record as “competitive inhibitors with respect to ATP”. Further, the “inhibition of pyocyanin production” value in series [1] is given as “neither inhibited pyocyanin production”. In addition, the IC50 in the series with MRC5 cells worked out at 33.7 µM; in the series on HepG2 cells (setting [2]) it was 6 µM; in the series with HepG2 cells (setting [3]) it was 56.3 µM. Moreover, the “toxicity in words, CellTiter Glo, MRC5” value in the series with MRC5 cells is recorded as “significant toxicity in the tested range”. For the same compound, the “toxicity in words, imaging, HepG2” value in the series on HepG2 cells was “significant toxicity in the tested range”.
